Consider 17 molecules from US9440930B2, “Substituted bicyclic dihydropyrimidinones and their use as inhibitors of neutrophil elastase activity” (Boehringer Ingelheim International GmbH, priority 2014, dated 2016).

The target of data set [1] is T1, Human neutrophil elastase (Homo sapiens, UniProt P08246).
T1 construct: purchased Calbiochem 324681
T1 sequence (P08246 30-247 limits assumed): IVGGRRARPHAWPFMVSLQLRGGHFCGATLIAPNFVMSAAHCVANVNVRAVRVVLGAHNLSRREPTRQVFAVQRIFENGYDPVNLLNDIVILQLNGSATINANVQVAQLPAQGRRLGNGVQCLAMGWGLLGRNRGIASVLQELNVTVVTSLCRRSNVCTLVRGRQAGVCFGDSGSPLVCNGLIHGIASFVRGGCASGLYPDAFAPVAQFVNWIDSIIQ
The data set is described as follows: Human Neutrophil Elastase Assay. In kind it is biochemical. To be noted: substrate MeOSuc-Ala-Ala-Pro-Val-AMC 250 μM, pH 7.5, room temperature. From the text: Human Neutrophil Elastase Assay

The target of data set [2] is T2, neutrophil elastase in human plasma (Homo sapiens, UniProt P08246).
T2 construct: The stimulated blood is centrifuged to generate the neutrophil elastase enriched plasma; from tissue; host or cells: plasma from zymosan-stimulated citrated whole blood of healthy human donors
T2 sequence (P08246 30-267): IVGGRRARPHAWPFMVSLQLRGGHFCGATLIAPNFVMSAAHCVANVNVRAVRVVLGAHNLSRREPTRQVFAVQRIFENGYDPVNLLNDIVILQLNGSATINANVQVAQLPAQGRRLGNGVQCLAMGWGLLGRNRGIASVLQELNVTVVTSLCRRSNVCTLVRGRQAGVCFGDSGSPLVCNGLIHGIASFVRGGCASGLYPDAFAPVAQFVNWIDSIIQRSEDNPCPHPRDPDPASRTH
The data set is described as follows: Neutrophil elastase inhibitory activity in human plasma. In kind it is biochemical. As to conditions: zymosan-stimulated human plasma, substrate MeOSuc-Ala-Ala-Pro-Val-AMC 250 μM. As for the experimental part:
Assay for the Determination of Neutrophil Elastase Inhibitory Activity in Human Plasma
Citrated blood from human healthy donors is mixed with zymosan suspension and incubated at room temperature. This leads to the stimulation of neutrophils and the release of neutrophil elastase into the plasma. The stimulated blood is centrifuged to generate the neutrophil elastase enriched plasma.
• A single 45 ml blood sample is taken into a 50 ml tube containing citrate (3.13%, 5 mL) and the tube is gently inverted 4 times. • Immediately after blood sampling, zymosan working solution (5 mL) is added. • After the addition of zymosan working solution, the tubes are capped, mixed gently and incubated at 22° C. for 15 min on a shaker at 20 rpm. • Make 10 ml aliquots after the incubation time. • Centrifuge the 15 ml tubes at 800 g for 15 min at 4° C. in a Jouan centrifuge. • Harvest the plasma and make 1-5 ml aliquots. • Store the plasma at −80° C.
A dose response curve is generated to calculate the EC50 of the inhibitor. The analysis of the data is performed by the calculation of the percentage of fluorescence in the presence of the test compound compared to the fluorescence of the vehicle control after subtracting the background fluorescence: An inhibitor of the neutrophil elastase enzyme will give values between 100% control (no inhibition) and 0% control (complete inhibition).

Data set [3] can be described thus: Drug transport across human Caco-2 cells. In kind it is in vitro ADME. To be noted: pH 7.2, 37° C.; for Papp A→B at 10 µM: apical-to-basal, read-out: PEAB; for Papp B→A at 10 µM: basal-to-apical, read-out: PEBA. From the text:
Assay for Determination of Drug Transport Across Human Caco-2 Cells
The assay provides information on the potential of a compound to pass the cell membrane, on the extent of oral absorption as well as on whether the compound is actively transported by uptake and/or efflux transporters. For the measurement of permeability across polarized, confluent human cancer colon carcinoma cells 2 (Caco-2) cell monolayers grown on permeable filter supports are used as the in vitro absorption model.
Apparent permeability coefficients (PE) of the compounds across the Caco-2 monolayers are measured (pH 7.2, 37° C.) in apical-to-basal (AB) (absorptive) and basal-to-apical (BA) (secretory) transport direction. AB permeability (PEAB) represents drug absorption from the intestine into the blood and BA permeability (PEBA) drug secretion from the blood back into the intestine via both passive permeability as well as active transport mechanisms mediated by efflux and uptake transporters that are expressed on the Caco-2 cells. The compounds are assigned to permeability/absorption classes by comparison of the AB permeabilities with the AB permeabilities of reference compounds with known in vitro permeability and oral absorption in the human. Identical or similar permeabilities in both transport directions indicate passive permeation, vectorial permeability points to additional active transport mechanisms. […] Active transport is concentration-dependently saturable.
Caco-2 cells (1-2*10^5 cells/cm^2 area) are seeded on filter inserts (Costar transwell polycarbonate or PET filters, 0.4 μm pore size) and cultured (DMEM) for 10 to 25 days. Compounds are dissolved in appropriate solvent (like DMSO, 1-20 min stock solutions). Stock solutions are diluted with HTP-4 buffer (128.13 min NaCl, 5.36 min KCl, 1 mM MgSO4, 1.8 min CaCl2, 4.17 min NaHCO3, 1.19 min Na2HPO4×7H2O, 0.41 mM NaH2PO4×H2O, 15 min HEPES, 20 min glucose, pH 7.2) to prepare the transport solutions (typically 10 μM compound, final DMSO<=0.5%). The transport solution (TL) is applied to the apical or basolateral donor side for measuring A-B or B-A permeability (3 filter replicates), respectively. The receiver side contains HTP-4 buffer supplemented with 2% BSA. Samples are collected at the start and end of experiment from the donor and at various time intervals for up to 2 hours also from the receiver side for concentration measurement by LC-MS/MS or scintillation counting. Sampled receiver volumes are replaced with fresh receiver solution.
(In general: Caco-2 monolayers are a common model of the intestinal barrier.)

The nature of data set [4]: Metabolic stability with human liver microsomes. Format: in vitro ADME. As to conditions: pooled human liver microsomes, pH 7.6; human liver microsomes 1 mg/ml, 1 μM compound, 37° C., NADPH; read-out: t1/2 INVITRO. (Microsomes from liver hold many membrane-bound enzymes, among them those of drug oxidation.)

For `CN1C(=O)N(c2cccc(C(F)(F)F)c2)C2=C(C(=O)CCC2)C1c1ccc(C#N)cc1[S+](C)[O-]` (single isomer, unassigned) [Example 2.2B, 3-Methanesulfinyl-4-[3-methyl-2,5-dioxo-1-(3-trifluoromethyl-phenyl)-1,2,3,4,5,6,7,8-octahydro-quinazolin-4-yl]-benzonitrile], half-maximal inhibition in data set [1] (IC50) required 100 nM.

On to `CS(=O)(=O)c1cc(C#N)ccc1C1C2=C(CCCC2=O)N(c2cccc(C(F)(F)F)c2)C(=O)N1CC1COC1` (single isomer, unassigned) [Example 5B, 3-Methanesulfonyl-4-[3-oxetan-3-ylmethyl-2,5-dioxo-1-(3-trifluoromethyl-phenyl)-1,2,3,4,5,6,7,8-octahydro-quinazolin-4-yl]-benzonitrile], for which half-maximal inhibition in data set [1] (IC50) was put at 157 nM. Consider `N#Cc1ccc(C2NC(=O)N(c3cccc(C(F)(F)F)c3)C3=C2C(=O)CCC3)c(S(=O)(=O)CCO)c1` (stereo not shown) [Example 4, 4-[2,5-Dioxo-1-(3-trifluoromethyl-phenyl)-1,2,3,4,5,6,7,8-octahydro-quinazolin-4-yl]-3-(3-hydroxy-ethane-1-sulfonyl)-benzonitrile], for which, in data set [1], the IC50 is 7 nM. As for `CN1C(=O)N(c2cccc(C(F)(F)F)c2)C2=C(C(=O)CCC2)C1c1ccc(C#N)cc1S(=O)(=O)CCCO` (stereo not shown) [Example 4.4], the EC50 in data set [2] came out at 2 nM. Also, in data set [3], the Papp A→B at 10 µM is 8.4 ×10⁻⁶ cm/s and the Papp B→A at 10 µM is 110 ×10⁻⁶ cm/s. Also, the half-life at 1 μM in data set [4] was 1.67 h. Moreover, the IC50 in data set [1] was less than 1 nM.

With `CN1C(=O)N(c2cccc(C(F)(F)F)c2)C2=C(C(=O)CCC2)C1c1ccc(C#N)cc1[S+](C)[O-]` (single isomer, unassigned) [Example 2.2, 3-Methanesulfinyl-4-[3-methyl-2,5-dioxo-1-(3-trifluoromethyl-phenyl)-1,2,3,4,5,6,7,8-octahydro-quinazolin-4-yl]-benzonitrile], in data set [1], the IC50 came out at 1.2 nM. Take `COCCS(=O)(=O)c1cc(C#N)ccc1C1NC(=O)N(c2cccc(C(F)(F)F)c2)C2=C1C(=O)CCC2` (stereo not shown) [Example 4.2]: the IC50 in data set [1] amounted to 11 nM. On the same count and under the same terms, the value for `CN1C(=O)N(c2cccc(C(F)(F)F)c2)C2=C(C(=O)CCC2)C1c1ccc(C#N)cc1[S+](C)[O-]` (single isomer, unassigned) [Example 2.1, 3-Methanesulfinyl-4-[3-methyl-2,5-dioxo-1-(3-trifluoromethyl-phenyl)-1,2,3,4,5,6,7,8-octahydro-quinazolin-4-yl]-benzonitrile] was less than 1 nM. `CS(=O)(=O)c1cc(C#N)ccc1C1C2=C(CCCC2=O)N(c2cccc(C(F)(F)F)c2)C(=O)N1CC1COC1` (single isomer, unassigned) [Example 5A, 3-Methanesulfonyl-4-[3-oxetan-3-ylmethyl-2,5-dioxo-1-(3-trifluoromethyl-phenyl)-1,2,3,4,5,6,7,8-octahydro-quinazolin-4-yl]-benzonitrile] yielded an EC50 in data set [2] of 1 nM. Besides, in data set [3], the Papp A→B at 10 µM was determined as 12 ×10⁻⁶ cm/s and the Papp B→A at 10 µM is 89 ×10⁻⁶ cm/s. The half-life at 1 μM in data set [4] was determined as 1.23 h. The molecule also gave an IC50 in data set [1] of 1 nM. Turning to `CN1C(=O)N(c2cccc(C(F)(F)F)c2)C2=C(C(=O)CCC2)C1c1ccc(C#N)cc1[S+](C)[O-]` (single isomer, unassigned) [Example 2.1B, 3-Methanesulfinyl-4-[3-methyl-2,5-dioxo-1-(3-trifluoromethyl-phenyl)-1,2,3,4,5,6,7,8-octahydro-quinazolin-4-yl]-benzonitrile], 134 nM corresponded to half-maximal inhibition in data set [1] (IC50). In other words, the sub-micromolar range. In data set [1], `CNC(=O)N1C(=O)N(c2cccc(C(F)(F)F)c2)C2=C(C(=O)CCC2)C1c1ccc(C#N)cc1[S+](C)[O-]` (single isomer, unassigned) [Example 3.1, 4-(4-Cyano-2-methanesulfinyl-phenyl)-2,5-dioxo-1-(3-trifluoromethyl-phenyl)-1,4,5,6,7,8-hexahydro-2H-quinazoline-3-carboxylic acid methylamide] registered an IC50 of less than 1 nM. In data set [1], `C[S+]([O-])c1cc(C#N)ccc1C1NC(=O)N(c2cccc(C(F)(F)F)c2)C2=C1C(=O)CCC2` (single isomer, unassigned) [Example 1.1A, 4-[2,5-Dioxo-1-(3-trifluoromethyl-phenyl)-1,2,3,4,5,6,7,8-octahydro-quinazolin-4-yl]-3-methanesulfinyl-benzonitrile] yielded an IC50 of less than 1 nM. In turn, `C[S+]([O-])c1cc(C#N)ccc1C1NC(=O)N(c2cccc(C(F)(F)F)c2)C2=C1C(=O)CCC2` (single isomer, unassigned) [Example 1.1B, 4-[2,5-Dioxo-1-(3-trifluoromethyl-phenyl)-1,2,3,4,5,6,7,8-octahydro-quinazolin-4-yl]-3-methanesulfinyl-benzonitrile] yielded an IC50 in data set [1] of 7.4 nM. This counts as single-digit nanomolar. `N#Cc1ccc(C2NC(=O)N(c3cccc(C(F)(F)F)c3)C3=C2C(=O)CCC3)c(S(=O)(=O)CCCO)c1` (stereo not shown) [Example 4.1] registered an IC50 in data set [1] of 5.6 nM. The IC50 values of the last two molecules are within 1.5-fold of each other. `C[S+]([O-])c1cc(C#N)ccc1C1NC(=O)N(c2cccc(C(F)(F)F)c2)C2=C1C(=O)CCC2` (single isomer, unassigned) [Example 1.1, 4-[2,5-Dioxo-1-(3-trifluoromethyl-phenyl)-1,2,3,4,5,6,7,8-octahydro-quinazolin-4-yl]-3-methanesulfinyl-benzonitrile] displayed an IC50 in data set [1] of 2 nM.

For the molecule `CNC(=O)N1C(=O)N(c2cccc(C(F)(F)F)c2)C2=C(C(=O)CCC2)C1c1ccc(C#N)cc1[S+](C)[O-]` (single isomer, unassigned) [Example 3.2, 4-(4-Cyano-2-methanesulfinyl-phenyl)-2,5-dioxo-1-(3-trifluoromethyl-phenyl)-1,4,5,6,7,8-hexahydro-2H-quinazoline-3-carboxylic acid methylamide], the IC50 in data set [1] was less than 1 nM. The same measure, in the same setting: the value for `C[S+]([O-])c1cc(C#N)ccc1C1NC(=O)N(c2cccc(C(F)(F)F)c2)C2=C1C(=O)CCC2` (single isomer, unassigned) [Example 1.2, 4-[2,5-Dioxo-1-(3-trifluoromethyl-phenyl)-1,2,3,4,5,6,7,8-octahydro-quinazolin-4-yl]-3-methanesulfinyl-benzonitrile] was 4.2 nM. On the same count and under the same terms, the value for `CN1C(=O)N(c2cccc(C(F)(F)F)c2)C2=C(C(=O)CCC2)C1c1ccc(C#N)cc1CO` (stereo not shown) [Example 7, 3-Hydroxymethyl-4-[3-methyl-2,5-dioxo-1-(3-trifluoromethyl-phenyl)-1,2,3,4,5,6,7,8-octahydro-quinazolin-4-yl]-benzonitrile] was 1 nM.

As usually defined, the IC50 is the concentration needed to halve the response being measured. Higher therefore signals a need for much substance. A word on the EC50: it is the concentration at which the effect is half-maximal. High values mean a need for much substance, low ones an effect from little substance.
